According to patent publication US20120156615A1, “CYCLIC COMPOUND, PROCESS FOR PRODUCTION OF THE CYCLIC COMPOUND, RADIATION-SENSITIVE COMPOSITION, AND METHOD FOR FORMATION OF RESIST PATTERN” (MITSUBISHI GAS CHEMICAL COMPANY, INC., priority 2009, published 2012):

Assay: Solubility of compound in safety solvent
Type: physicochemical
Settings: for solubility in CHN (dissolved amount): solvent cyclohexanone (CHN); for solubility in PGME (dissolved amount): solvent propylene glycol monomethyl ether (PGME)
Description: (1) Solubility of Compound in Safety Solvent
The compounds obtained in Synthesis Examples 1 to 6 and Synthesis 1 to 4 were evaluated for the solubility in propylene glycol monomethyl ether (PGME) and cyclohexanone (CHN).
A: 20.0 wt %≦dissolved amount
B: 1.0 wt %≦dissolved amount<20.0 wt %
C: dissolved amount<1.0 wt %

Row | Structure (SMILES) | solubility in CHN (dissolved amount) | solubility in PGME (dissolved amount)
1 | Oc1cc(O)c2cc1C(c1ccc(C3CCCCC3)cc1)c1cc(c(O)cc1O)C(c1ccc(C3CCCCC3)cc1)c1cc(c(O)cc1O)C(c1ccc(C3CCCCC3)cc1)c1cc(c(O)cc1O)C2c1ccc(C2CCCCC2)cc1 (stereo not shown) [CR-4A] | B (1.0 wt %≦dissolved amount<20.0 wt %) | B (1.0 wt %≦dissolved amount<20.0 wt %)
2 | CC(C)c1ccc(C2c3cc(c(O)cc3O)C(c3ccc(C(C)C)cc3)c3cc(c(O)cc3O)C(c3ccc(C(C)C)cc3)c3cc(c(O)cc3O)C(c3ccc(C(C)C)cc3)c3cc2c(O)cc3O)cc1 (stereo not shown) [CR-1A] | B (1.0 wt %≦dissolved amount<20.0 wt %) | B (1.0 wt %≦dissolved amount<20.0 wt %)
